Measured values published in PubChem BioAssay (NCI).
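Test compounds were applied to cells in 96-well plates for 48 hours at 5 doses. GI50: concentration for 50% inhibition of growth. At the TGI there is no net growth.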

Legend:
Experiment in all cases: NCI-60 cell line screen, 48 h
786-0 renal = test system: 786-0 renal
A549 NSCLC = test system: A549 NSCLC
CAKI-1 renal = test system: CAKI-1 renal
COLO 205 colon = test system: COLO 205 colon
HCT-15 colon = test system: HCT-15 colon
HL-60(TB) leukemia = test system: HL-60(TB) leukemia
HT29 colon = test system: HT29 colon
LOX IMVI melanoma = test system: LOX IMVI melanoma
MOLT-4 leukemia = test system: MOLT-4 leukemia
NCI-H226 lung = test system: NCI-H226 lung
OVCAR-4 ovarian = test system: OVCAR-4 ovarian
SK-MEL-2 melanoma = test system: SK-MEL-2 melanoma
UACC-62 melanoma = test system: UACC-62 melanoma
HOP-92 NSCLC = test system: HOP-92 NSCLC
HS 578T breast = test system: HS 578T breast

Compound | TGI (786-0 renal) | TGI (A549 NSCLC) | TGI (CAKI-1 renal) | TGI (COLO 205 colon) | TGI (HCT-15 colon) | TGI (HL-60(TB) leukemia) | TGI (HT29 colon) | TGI (LOX IMVI melanoma) | TGI (MOLT-4 leukemia) | TGI (NCI-H226 lung) | TGI (OVCAR-4 ovarian) | TGI (SK-MEL-2 melanoma) | TGI (UACC-62 melanoma) | TGI (HOP-92 NSCLC) | TGI (HS 578T breast) | GI50 (HCT-15 colon) | GI50 (HL-60(TB) leukemia)
CCOP(=O)(C/C(=N/NC(C)(C)C)C(=O)Nc1nc2ccc(C)cc2s1)OCC | > 100 µM | > 100 µM | > 100 µM | > 100 µM | > 100 µM | > 100 µM | > 100 µM | > 100 µM | > 100 µM | > 100 µM | > 100 µM | > 100 µM | > 100 µM |  |  |  | 
COC(=O)[C@@H]1C[C@H]2[C@H](c3ccccc3Br)[C@@H](OC(C)=O)[C@@H](OCc3ccccc3)ON2O1 | > 100 µM | > 100 µM | > 100 µM | > 100 µM | > 100 µM |  | > 100 µM | > 100 µM | > 100 µM |  | > 100 µM | > 100 µM | > 100 µM |  |  |  | 
CCC(=O)NCC1(c2c[nH]c3ccccc23)SCCS1 | > 100 µM | > 100 µM | > 100 µM | > 100 µM | > 100 µM | > 100 µM | > 100 µM | > 100 µM | > 100 µM | > 100 µM | > 100 µM | > 100 µM | > 100 µM | > 100 µM |  |  | 
O=c1[nH]nc2c3n[nH]c(=O)n3c3ccccc3n12 | > 100 µM | > 100 µM | > 100 µM | > 100 µM | > 100 µM |  | > 100 µM | > 100 µM | > 100 µM | > 100 µM | > 100 µM | > 100 µM | > 100 µM | > 100 µM |  |  | 
CCOC(=O)C1C(=O)CC(C)(O)C(C(=O)OCC)C1c1ccc(O)c(OC)c1 (configuration not stated) | > 100 µM | > 100 µM | > 100 µM | > 100 µM | > 100 µM | > 100 µM | > 100 µM | > 100 µM | > 100 µM | > 100 µM | > 100 µM | > 100 µM | > 100 µM | > 100 µM |  |  | 
CCCCNC(=O)C1=C(C)NC(C)=C(C(=O)NCCCC)C1 | > 100 µM | > 100 µM | > 100 µM | > 100 µM | > 100 µM | > 100 µM | > 100 µM | > 100 µM | > 100 µM | > 100 µM | > 100 µM | > 100 µM | > 100 µM | > 100 µM |  |  | 
COc1ccc(-n2c(C)nc3ccc(N=Cc4ccccc4)cc3c2=O)cc1 | > 100 µM |  | > 100 µM | > 100 µM | > 100 µM | > 100 µM | > 100 µM | > 100 µM | > 100 µM | > 100 µM | > 100 µM |  | > 100 µM |  | > 100 µM |  | 
CCOC(=O)NC(=O)c1cn(-c2ccc(CCOC(=O)CCCCCCCCC(=O)OCCc3ccc(-n4cc(C(=O)NC(=O)OCC)c(=O)[nH]c4=O)cc3)cc2)c(=O)[nH]c1=O | > 100 µM | > 100 µM |  | > 100 µM | > 100 µM | > 100 µM | > 100 µM | > 100 µM | > 100 µM | > 100 µM | > 100 µM | > 100 µM | > 100 µM | 88.7 µM |  |  | 
COC(=O)C(=O)C(C(=O)C(=O)Nc1ccc([N+](=O)[O-])cc1C#N)c1nc2ccc([N+](=O)[O-])cc2[nH]c1=O (configuration not stated) | > 100 µM | > 100 µM | > 100 µM | > 100 µM | > 100 µM | > 100 µM | > 100 µM | > 100 µM | > 100 µM | > 100 µM | > 100 µM | > 100 µM | > 100 µM | > 100 µM |  |  | 
Clc1ccc(OCc2nnc(CCCCCCCCc3nnc(COc4ccc(Cl)cc4)o3)o2)cc1 | > 100 µM | > 100 µM | > 100 µM | > 100 µM | > 100 µM |  | > 100 µM |  | > 100 µM | > 100 µM | > 100 µM | > 100 µM | > 100 µM | > 100 µM |  |  | 
COc1cc2c(cc1OC)[C@]1(O)C(=O)c3ccc4c(c3O[C@@H]1CO2)C[C@H](C(C)(C)O)O4 | > 100 µM | > 100 µM |  | > 100 µM |  | > 100 µM | > 100 µM | > 100 µM | > 100 µM |  |  | > 100 µM | > 100 µM | > 100 µM |  |  | 
C1CSCCSS[C@@H]2CCCCC2SC1 (some centres not stated) | > 100 µM | > 100 µM |  | > 100 µM | > 100 µM | > 100 µM | > 100 µM | > 100 µM | > 100 µM |  | > 100 µM |  | > 100 µM | 97.8 µM |  |  | 
CC(=O)C1CC2(c3ccccc3)C(=O)c3ccccc3N2O1 (configuration not stated) | > 100 µM | > 100 µM |  | > 100 µM | > 100 µM | > 100 µM | > 100 µM |  | > 100 µM | > 100 µM | > 100 µM |  | > 100 µM | > 100 µM |  |  | 
O=C1c2ccccc2N2OC3C4CCC(C4)C3C12c1ccccc1 (configuration not stated) | > 100 µM | > 100 µM |  | > 100 µM | > 100 µM | > 100 µM | > 100 µM |  | > 100 µM | > 100 µM | > 100 µM |  | > 100 µM | > 100 µM |  |  | 
CN1C(=O)c2cccc3c([N+](=O)[O-])ccc(c23)C1=O | 21 µM | 26.8 µM | 5.17 µM | 19.8 µM | 11 µM |  |  | 18.9 µM | 28.2 µM | 4.05 µM | 25.9 µM | 24.8 µM | 4.03 µM | 19.9 µM |  |  | 
COc1ccccc1OCc1nnc(SCC(=O)O)n1-c1ccccc1 | > 100 µM | > 100 µM |  | > 100 µM | > 100 µM | > 100 µM | > 100 µM | > 100 µM | > 100 µM | > 100 µM | > 100 µM | > 100 µM | > 100 µM | > 100 µM |  |  | 
S=C(NNC1=NCCCCN1)Nc1ccccc1 | > 100 µM | > 100 µM | > 100 µM | > 100 µM | > 100 µM | > 100 µM | > 100 µM | 94.7 µM | > 100 µM | > 100 µM |  |  | > 100 µM |  |  |  | 
CC(=O)NC1C(OCc2ccccc2)OC(CO)C(O)C1OCC(=O)NC(C)C(=O)NC(CCC(=O)OCCNC(=O)c1cccc2cc3ccccc3nc12)C(N)=O (configuration not stated) | 70.8 µM | 23.4 µM | 30.2 µM | 64.8 µM | 33.6 µM | 57.7 µM | > 100 µM | 26.8 µM | > 100 µM | 44.7 µM | 48.7 µM | 70.9 µM | 34.3 µM | 59 µM |  |  | 
CN(C)CCCNC(=O)c1cc(NC(=O)CCCn2c3ccccc3c3ccccc32)cn1C | > 100 µM | > 100 µM | > 100 µM | 59.8 µM | > 100 µM | > 100 µM | > 100 µM | > 100 µM | > 100 µM | > 100 µM | > 100 µM | > 100 µM | > 100 µM | 9.32 µM |  |  | 
CN(C)CC1CCC(CN(C)C)C1=NO (configuration not stated) | > 100 µM | > 100 µM | > 100 µM | > 100 µM | > 100 µM |  | > 100 µM | > 100 µM | > 100 µM |  | > 100 µM |  | > 100 µM | > 100 µM |  |  | 
CCCC/C=C1\CCC(CN2CCOCC2)C1=O (configuration not stated) | 4.25 µM | 46.2 µM | 3.74 µM | 9.49 µM | 9.3 µM | 5.61 µM | 12.1 µM | 3.14 µM | 10.7 µM | 24.2 µM | 36.1 µM | 23.8 µM | 16 µM | 3.72 µM |  | 3.05 µM | 0.566 µM
N[C@H]1CCc2c1nc1c(c2-c2ccccc2)CC[C@@H]1N | 28.6 µM | > 100 µM | 33.7 µM | 44.2 µM | > 100 µM | 46.4 µM | 26 µM | 30.6 µM | 27.6 µM | > 100 µM | > 100 µM | 40.1 µM |  | > 100 µM |  |  | 
COc1cc([C@@H]2c3cc4c(cc3[C@@H](NC(=O)c3ccc(C(C)=O)cc3)C3COC(=O)[C@@H]32)OCO4)cc(OC)c1O (some centres not stated) | 1.81 µM | 2.41 µM | 20.3 µM | 19.5 µM | 17.3 µM | 0.912 µM | 6.34 µM | 4.68 µM | 29.9 µM | 1.93 µM | > 100 µM | 8.03 µM | 2.1 µM | 27 µM |  |  | 
O=c1cc2oc3ccc4ccccc4c3cc-2c(=O)[nH]1 | 26.7 µM | 42.8 µM | 28.8 µM | 30 µM | 22.9 µM | 4.18 µM | 32.2 µM | 21 µM | 8.02 µM |  | 48.5 µM | 31.6 µM | 32.5 µM |  | 58.4 µM |  | 
C/C(CC(=O)Nc1ccc(C)cc1)=N\NC(N)=S | > 100 µM | > 100 µM |  | > 100 µM |  | > 100 µM | > 100 µM | > 100 µM | > 100 µM | > 100 µM |  | > 100 µM | > 100 µM | > 100 µM |  |  | 
N#CC1(C#N)C(c2ccccc2)NC23CCCCC2C1(C#N)C(=O)N3 (configuration not stated) | > 100 µM | > 100 µM | > 100 µM | > 100 µM | > 100 µM |  | > 100 µM |  | > 100 µM | > 100 µM | > 100 µM | > 100 µM | > 100 µM | > 100 µM |  |  | 
